# Columns and labels:
# YAP/TAZ = test: Screening: YAP/TAZ activity reporter (8xGTIIC plasmid) assay in NUGC3 cells (luminescence % of DMSO); assay type: cell-based, human; settings: NUGC3 cells, luminescence relative to DMSO; for 8×GTIIC: concentration not given
# Procedure: (§1) Human gastric cancer cell line NUGC3 was cultured in a DMEM medium (high glucose with L-glutamine and phenol red, produced by FUJIFILM Wako Pure Chemical Corporation) containing 10% fetal bovine serum (produced by Thermo Fisher Scientific Inc.) and penicillin-streptomycin (produced by FUJIFILM Wako Pure Chemical Corporation) (this medium is simply referred to below as “DMEM+10% FBS+1×P/S”). Then, the NUGC3 cells were seeded in a 60-mm culture dish (produced by BioLite) so that the cells were 80% confluent after 24 hours. Subsequently, 5 μg of a reporter plasmid and 15 μL of a lipofection reagent (transIT-LT1, produced by Mirus Bio LLC) were mixed in 500 μL of Opti-MEM medium (produced by Thermo Fisher Scientific, Inc.) to form a complex, which was added to the medium in which the NUGC3 cells were cultured in the 60-mm culture dish. For use as the reporter plasmid, 5 μg of a polyglutamine luciferase reporter was introduced (in the polyglutamine luciferase reporter, a Renilla luciferase expressed in the IRES was located as an internal standard downstream of the sequence of a firefly luciferase sequence to which polyglutamine was added). Alternatively, a YAP/TAZ activity reporter was used by simultaneously introducing 3 μg of 8×GTIIC plasmid and 2 μg of a Renilla luciferase reporter as an internal standard. After another 24 hours, the cells were exfoliated with a 0.05 w/v % trypsin-0.53 mmol/l EDTA-4Na solution (produced by FUJIFILM Wako Pure Chemical Corporation), and then seeded in a 96-well plate (produced by BioLite) so that the cells were 80% confluent after 24 hours. Twenty-four hours after seeding in the 96-well plate, the medium in each well was replaced with 100 μL of a medium (DMEM+10% FBS+an antibiotic) containing 10 μM or 5 μM of a compound for evaluation. After another 24 hours, the medium containing the compound was removed, and the 96-well plate was transferred on ice. Each well was washed with 100 μL of phosphate buffer (PBS, produced by FUJIFILM Wako Pure Chemical Corporation). Thereafter, 20 μL of Passive Lysis Buffer (1×) contained in a Dual-Luciferase Reporter Assay System (produced by Promega Corporation) was added. The plate was then gently shaken for 15 minutes at room temperature to lyse the cells. After confirming that the cells were lysed, 10 μL of the lysate was transferred from each well to each corresponding well of a white 96-well plate (produced by Greiner Bio-one). To each well of the white 96-well plate was added 100 μL of a mixture of a Luciferase Assay Buffer II and Luciferase Assay Substrate contained in the Dual-Luciferase Reporter Assay System (produced by Promega Corporation), whereby the luminescence of the firefly luciferase was induced, and the luminescence intensity was detected with a microluminometer (produced by Berthold Japan K.K.). Subsequently, 100 μL of a mixture of Stop & Glo Buffer and Stop & Glo Substrate contained in the Dual-Luciferase Reporter Assay System (produced by Promega Corporation) was added, whereby the luminescence of firefly luciferase was quenched while the luminescence of Renilla luciferase was induced, and the luminescence intensity was detected with a microluminometer (produced by Berthold Japan K.K.) in a manner similar to the above. The ratio of the luminescence intensity of the firefly luciferase and the luminescence intensity of the Renilla luciferase was calculated, and the luminescence intensity (%) of the wells containing each compound was calculated with the luminescence intensity of the well containing DMSO (dimethyl sulfoxide, used as a solvent for the compound liquids) taken as 100%. […] Unless otherwise specified, the measured values in the table represent the results obtained by evaluation with the addition of 10 μM of each compound for evaluation.
# [1] = test system: polyglutamine luciferase reporter; test: Screening: polyglutamine luciferase reporter assay in NUGC3 cells (luminescence % of DMSO); assay type: cell-based, human; settings: NUGC3 cells, luminescence relative to DMSO; for Polyglutamine: concentration not given
# Procedure: as §1
# [2] = YAP/TAZ activity reporter (8×GTIIC)
# [3] = polyglutamine luciferase reporter
SMILES,8×GTIIC (YAP/TAZ; [2]),"Polyglutamine [1, 3]",other results
Cc1ccc(C2=NC(S(=O)(=O)c3ccccc3C)C(c3cccc(C)c3)C2)cc1 (stereo not drawn) [PVZF0062],,,8×GTIIC (YAP/TAZ): 73.79%; Polyglutamine [1]: 54.91%
"Cc1ccc(C)c(S(=O)(=O)CC2CCC(C3CC3)CC2)c1 (single isomer, unassigned) [SA005]",90.78%,76.08%,
CCc1ccc(S(=O)(=O)C2CCC(CS(=O)(=O)c3cc(C)cc(C)c3)CC2)cc1 (stereo not drawn) [SA021],70.64%,44.6%,
Cc1ccc(C2=NC(S(=O)(=O)c3ccc(C)cc3)C(c3ccccc3C)C2)cc1 (stereo not drawn) [PVZF0094],,,8×GTIIC (YAP/TAZ): 97.79%; Polyglutamine [1]: 69.05%
CCCCCCS(=O)(=O)c1ccc(-c2ccccc2)cc1 [PVZF2029],49.28%,49.5%,
O=S(=O)(CC1CCCCC1)c1ccccc1 [PVZF2048],69.86%,73.33%,
CCCC(=O)C1CCC(CS(=O)(=O)c2ccc(C)c(C)c2)CC1 (stereo not drawn) [SA026],46.21%,63.06%,
CC(C)(C)c1ccc(S(=O)(=O)CC2CCCCC2)cc1 [PVZF2021],44.55%,32.95%,
CCc1cc(C)c(S(=O)(=O)CC2CC(C)(C)CC(C)(C)C2)cc1C [SA010],64.43%,59.61%,
Cc1ccc(S(=O)(=O)CC2CCC(C3CC3)CC2)cc1C (stereo not drawn) [SA042],100.9%,94.62%,
CCc1ccccc1C1CC(c2ccc(C)cc2)=NC1S(=O)(=O)c1ccc(C)cc1 (stereo not drawn) [PVZF0091],,,8×GTIIC (YAP/TAZ): 40.68%; Polyglutamine [1]: 34.27%
CCc1ccccc1C1CC(c2ccc(C)cc2)=NC1S(C)(=O)=O (stereo not drawn) [PVZF0060],,,8×GTIIC (YAP/TAZ): 44.13%; Polyglutamine [1]: 38.44%
CCc1cccc(C2CC(c3ccc(C)cc3)=NC2S(=O)(=O)c2ccc(C)cc2)c1CC (stereo not drawn) [PVZF0069],,,8×GTIIC (YAP/TAZ): 49.99%; Polyglutamine [1]: 46.34%
CCC(C)(C)c1ccc(S(=O)(=O)CC2CCCCC2)cc1 [PVZF2039],60%,53.6%,
O=S(=O)(CC1CCC(S(=O)(=O)C2CCCCC2)CC1)c1ccccc1 (stereo not drawn) [SA071],138.5%,61.72%,
CC(C)(C)Cc1ccccc1S(=O)(=O)CC1CCC(C2CC2)CC1 (stereo not drawn) [SA089],50.1%,56.61%,
CCc1ccc(CC)c(C2CC(c3ccc(C)cc3)=NC2S(=O)(=O)c2ccccc2C)c1 (stereo not drawn) [PVZF0067],,,8×GTIIC (YAP/TAZ): 34.58%; Polyglutamine [1]: 32.14%
O=C(CCCCc1ccccc1)C1CCC(CS(=O)(=O)c2ccccc2)CC1 (stereo not drawn) [SA012],91.92%,86.48%,
Cc1cc(C)c(S(=O)(=O)CC2CC(C)(C)CC(C)(C)C2)cc1C [SA009],80.29%,73.02%,
CCCc1ccc(S(=O)(=O)CC2CCC(C3CC3)CC2)cc1 (stereo not drawn) [SA039],56.65%,97.44%,
Cc1ccc(S(=O)(=O)CC2CCC(S(C)(=O)=O)CC2)c(C)c1 (stereo not drawn) [SA076],64.29%,98.03%,
O=S(=O)(CCc1ccccc1)c1ccc(-c2ccccc2)cc1 [PVZF2032],76.99%,73.08%,
CCc1ccc(C2CC(c3ccc(C)cc3)=NC2S(=O)(=O)c2ccccc2)cc1CC (stereo not drawn) [PVZF0066],,,8×GTIIC (YAP/TAZ): 65.56%; Polyglutamine [1]: 56.14%
CCC(C)(C)c1ccc(S(=O)(=O)CC2CCCC2)cc1 [PVZF2037],43.28%,51.06%,
CCCCCCS(=O)(=O)c1ccc2ccccc2c1 [PVZF2011],36.2%,28.85%,

SMILES,8×GTIIC (YAP/TAZ; [2]),"Polyglutamine [1, 3]",other results
Cc1c(C)c(C)c(S(=O)(=O)CC2CC(C)(C)CC(C)(C)C2)c(C)c1C [SA028],59.49%,60.03%,
CC(=O)c1cccc(C2CC(c3ccc(C)cc3)=NC2S(=O)(=O)c2ccccc2)c1 (stereo not drawn) [PVZF0093],,,8×GTIIC (YAP/TAZ): 59.77%; Polyglutamine [1]: 45.45%
CC(=O)C1C=C(c2ccccc2)CC1c1ccc2ccccc2c1 (stereo not drawn) [PZ179],95.65%,66.51%,
Cc1ccccc1C1=CC(C2=CC3CCCCC3C=C2)=CC1 (stereo not drawn) [PVZF0101],,,"activity at 5 µM (YAP/TAZ; Homo sapiens, NUGC-3, 5 μM, read-out: 8×GTIIC): 16.1%; activity at 10 µM (YAP/TAZ; Homo sapiens, NUGC-3, 10 μM, read-out: 8×GTIIC): 12.5%; activity at 5 µM ([1]; Homo sapiens, NUGC-3, 5 μM): 13%; activity at 10 µM ([1]; Homo sapiens, NUGC-3, 10 μM): 10%"
CCc1cc(OC)cc(C2=NC(S(=O)(=O)c3ccccc3)C(c3cccc(CC)c3CC)C2)c1 (stereo not drawn) [PVZF0053],,,8×GTIIC (YAP/TAZ): 58.96%; Polyglutamine [1]: 68.68%
CCc1ccc(OC)cc1C1CC(c2ccc(C)cc2)=NC1S(=O)(=O)c1ccc(C)cc1 (stereo not drawn) [PVZF0043],,,8×GTIIC (YAP/TAZ): 36.69%; Polyglutamine [1]: 35.33%
Cc1ccccc1S(=O)(=O)CC1CCC(S(C)(=O)=O)CC1 (stereo not drawn) [SA059],88.99%,100.9%,
Cc1ccc(S(=O)(=O)CC2CCC(S(C)(=O)=O)CC2)cc1 (stereo not drawn) [SA060],90.52%,92.41%,
CCS(=O)(=O)C1CCC(CS(=O)(=O)c2ccc(C)cc2)CC1 (stereo not drawn) [SA044],63.33%,87.25%,
Cc1ccc(S(=O)(=O)CC2CC(C)(C)CC(C)(C)C2)cc1C(F)(F)F [SA001],74.98%,83.34%,
Cc1ccc(S(=O)(=O)CC2CCC(C3CC3)CC2)c(C)c1 (stereo not drawn) [SA057],73.76%,79.6%,
O=S(=O)(CCC1CCCCC1)c1ccc2ccccc2c1 [PVZF2015],51.25%,51.29%,
CC1(C)CC(CS(=O)(=O)c2ccc(C3CCCCC3)cc2)CC(C)(C)S1 [PVZF2072],83.58%,80.1%,
CC(C)(C)c1cccc(S(=O)(=O)C2CCC(CS(=O)(=O)c3ccccc3)CC2)c1 (stereo not drawn) [SA016],53.02%,43.01%,
Cc1ccc(C2=NC(S(=O)(=O)c3ccccc3)C(c3ccc(C)cc3)C2)cc1 (stereo not drawn) [PVZF0086],,,8×GTIIC (YAP/TAZ): 57.06%; Polyglutamine [1]: 58.32%
CCC1CCC(C(C)S(=O)(=O)c2c(C)cc(C(C)(C)C)cc2C)CC1 (stereo not drawn) [SA068],110.2%,81.58%,
CCc1cccc(C2CC(c3ccc(C)cc3)=NC2S(C)(=O)=O)c1 (stereo not drawn) [PVZF0061],,,8×GTIIC (YAP/TAZ): 121.9%; Polyglutamine [1]: 69.94%
CCc1ccc(C2=CC(C(C)=O)C(c3ccc(CC)c(C)c3)C2)cc1 (stereo not drawn) [PZ173],160.5%,67.61%,
CCc1ccc(C2CC(c3ccc(C)cc3)=NC2S(C)(=O)=O)cc1 (stereo not drawn) [PVZF0083],,,8×GTIIC (YAP/TAZ): 104.5%; Polyglutamine [1]: 57.89%
O=S(=O)(CC1CCC(C2CC2)CC1)c1ccc2c(c1)CCCC2 (stereo not drawn) [SA031],76.14%,62.23%,
O=S(=O)(CCc1ccccc1)c1ccccc1 [PVZF2050],39.57%,49.43%,
CC(=O)C1CC(c2cccc(C)c2)CC1c1ccccc1 (stereo not drawn) [PZ163],103.2%,71.16%,
CCc1ccc(C2CC(c3ccc(C)cc3)=NC2S(=O)(=O)c2ccccc2)cc1 (stereo not drawn) [PVZF0089],,,8×GTIIC (YAP/TAZ): 70.13%; Polyglutamine [1]: 67.1%
"Cc1ccc(C)c(S(=O)(=O)C2CCC(CS(=O)(=O)c3ccccc3)CC2)c1 (single isomer, unassigned) [SA015]",69.21%,60.36%,
CCCc1cc(C)c(C(C)C)cc1S(=O)(=O)CC1CC(C)(C)CC(C)(C)C1 [SA003],46.84%,37.79%,

# — patent publication US20230210834A1, “RNA METHYLTRANSFERASE INHIBITOR, SCREENING METHOD THEREFOR, ANTI-CANCER AGENT EFFICACY ASSESSMENT MARKER, AND KIT FOR EFFECTIVELY PREDICTING FTSJ1 INHIBITOR” (National University Corporation Okayama University, priority 2019, published 2023)
